One experiment has as its target T1, hormone sensitive lipase (Homo sapiens, UniProt Q05469).
T1 construct: made in house
T1 sequence (Q05469 1-1076): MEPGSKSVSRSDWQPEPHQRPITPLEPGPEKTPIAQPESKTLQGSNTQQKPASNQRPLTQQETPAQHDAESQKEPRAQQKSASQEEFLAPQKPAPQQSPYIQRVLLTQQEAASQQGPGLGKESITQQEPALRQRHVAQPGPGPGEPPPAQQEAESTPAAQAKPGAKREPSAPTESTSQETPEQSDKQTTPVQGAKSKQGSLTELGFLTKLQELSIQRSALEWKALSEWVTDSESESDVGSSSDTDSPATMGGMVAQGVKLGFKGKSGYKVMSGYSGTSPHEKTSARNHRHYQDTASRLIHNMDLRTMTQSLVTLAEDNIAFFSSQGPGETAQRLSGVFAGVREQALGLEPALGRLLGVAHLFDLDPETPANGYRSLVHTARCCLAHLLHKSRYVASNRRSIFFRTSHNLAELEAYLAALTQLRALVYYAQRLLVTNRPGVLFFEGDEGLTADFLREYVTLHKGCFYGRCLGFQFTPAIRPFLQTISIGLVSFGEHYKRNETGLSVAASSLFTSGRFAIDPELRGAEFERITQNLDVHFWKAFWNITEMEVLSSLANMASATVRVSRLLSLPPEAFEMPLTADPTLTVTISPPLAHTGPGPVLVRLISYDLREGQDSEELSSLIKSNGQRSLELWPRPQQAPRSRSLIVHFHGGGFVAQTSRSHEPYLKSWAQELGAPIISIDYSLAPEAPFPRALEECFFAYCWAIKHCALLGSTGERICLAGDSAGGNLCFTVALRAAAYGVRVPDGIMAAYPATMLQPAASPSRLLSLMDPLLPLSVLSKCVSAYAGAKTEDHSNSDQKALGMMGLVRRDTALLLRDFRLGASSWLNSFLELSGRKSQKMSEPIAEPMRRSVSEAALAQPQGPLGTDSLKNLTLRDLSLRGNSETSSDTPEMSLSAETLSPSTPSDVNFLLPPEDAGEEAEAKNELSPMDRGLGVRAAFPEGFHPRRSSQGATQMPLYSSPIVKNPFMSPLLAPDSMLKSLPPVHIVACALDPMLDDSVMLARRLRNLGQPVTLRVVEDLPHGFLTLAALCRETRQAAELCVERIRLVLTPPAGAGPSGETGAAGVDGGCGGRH
The experiment can be described thus: Assay 3190.1: percent inhibition of hormone sensitive lipase by compound at 10 μM (fluorochrome-labeled triacylglyceride emulsion, HSL_FL). Conditions: 10 μM sample concentration; % activity relative to non-inhibited sample (no compound); 30 min preincubation at 25° C., 120 min incubation at 37° C. It counts as biochemical. The source says: The Hormone-sensitive lipase was provided by Dr. Cecilia Holm, from Lund University Sweden or produced and purified by Novo Nordisk (NN) using the reagents and protocols used by Dr. Holm. The substrates used are: ^3H-labeled triolein (TO) from Amersham, Buckinghamshire, U.K. cat No. TRA191; 5-20 Ci/mmol dissolved in toluene, triolein (Sigma, Cat. No. T-1740), fluorochrome-labeled triacylglyceride (cis-octadec-9-enoic acid 2-[12-(7-nitrobenzo[1,2,5]oxadiazol-4-ylamino)dodecanoyloxy]-1-cis-octadec-9-enoyloxymethyl-ethyl ester) prepared by Novo Nordisk (NN) by conventional methods, and 1,3-(di[^3H]-stearin), 2-(PEG-Biotin)glycerol prepared in collaboration with Amersham Pharmacia Biotech, UK and described in WO 01/073442. Phosphatidyl choline (PC) and phosphatidyl inositol (PI) are from Sigma (St Luis Mo. cat. Nos. P-3556 and P-5954 respectively). All other reagents are of commercial grade and obtained from various commercial sources.
3190.1: Assay for determination of percent inhibition of hormone sensitive lipase by compound at 10 μM sample concentration.
A lipid emulsion with fluorochrome-labeled triacylglyceride and phospholipid is used as substrate with a standard concentration of highly purified HSL (12 μg/mL initial concentration corresponding to 600 ng/mL final concentration). BSA is added as product acceptor receptor. The transfer of the fluorochrome from the lipid phase to the water (BSA) phase changes the fluorescent properties of the fluorochrome. The changes can be monitored on a fluorimeter with an excitation wavelength of 450 nm and an emission wavelength of 545 nm.
Compound and HSL (20 μL compound, 10 μL enzyme and 70 μL PED-BSA buffer) is pre-incubated for 30 min at 25° C. before addition of substrate (100 μL). Amount of formed product is measured after 120 min incubation at 37° C.
Results are given as percent activity relative to a non-inhibited sample (no compound).
As to “4-(4-Carboxymethyl-phenoxy)-piperidine-1-carboxylic acid 4-(2-phenoxy-ethyl)-phenyl ester [Example 92]”, the “Test 3190.1 HSL_FL % ACTIVITY” value is on record as 3%.
For the compound “4-(4-Carboxymethyl-phenoxy)-piperidine-1-carboxylic acid 4-[2-(1-methyl-1H-tetrazol-5-yloxy)-ethyl]-phenyl ester [Example 94]”, the “Test 3190.1 HSL_FL % ACTIVITY” value was found to be 6%.
In the case of `CCOC(=O)CCc1ccc(OC2CCN(C(=O)Oc3ccc(Oc4ccc(C(F)(F)F)cn4)cc3)CC2)cc1` [Example 31, -[4-(2-Ethoxycarbonyl-ethyl)-phenoxy]-piperidine-1-carboxylic acid 4-(5-trifluoromethyl-pyridin-2-yloxy)-phenyl ester], the “Test 3190.1 HSL_FL % ACTIVITY” value is given as 0%.

The experiment is the same for the next values; noted with them: 10 μM sample concentration; % activity relative to non-inhibited sample (no compound); 30 min preincubation at 25° C., 120 min incubation at 37° C.; read-out: Test 3190.1 HSL_FL % ACTIVITY
As for `CN(CCC1CCN(C(=O)Oc2ccc(Oc3ccc(C(F)(F)F)cn3)cc2)CC1)Cc1ccccc1` [Example 1, 4-[2-(Benzyl-methyl-amino)-ethyl]-piperidine-1-carboxylic acid 4-(5-trifluoromethyl-pyridin-2-yloxy)-phenyl ester], the activity at 10 µM came out at 1%.
Consider `O=C(Oc1ccc(Oc2ccc(C(F)(F)F)cn2)cc1)N1CCC(Sc2nccn2-c2cccnc2)CC1` [Example 3, 4-(1-Pyridin-3-yl-1H-imidazol-2-ylsulfanyl)-piperidine-1-carboxylic acid 4-(5-trifluoromethyl-pyridin-2-yloxy)-phenyl ester], for which the activity at 10 µM came out at 5%.
On the same count and under the same terms, the result for `O=C(Oc1ccc(Oc2ccc(C(F)(F)F)cn2)cc1)N1CCC(Oc2cccnc2)CC1` [Example 10, 4-(Pyridin-3-yloxy)-piperidine-1-carboxylic acid 4-(5-trifluoromethyl-pyridin-2-yloxy)-phenyl ester] reads 1%.
Take `O=C(Oc1ccc(Oc2ccc(C(F)(F)F)cn2)cc1)N1CCC(On2nccc2Sc2ccccc2)CC1` [Example 12, 4-(5-Phenylsulfanyl-pyrazol-1-yloxy)-piperidine-1-carboxylic acid 4-(5-trifluoromethyl-pyridin-2-yloxy)-phenyl ester]: the activity at 10 µM turned out to be 11%.
Consider `O=C(Oc1ccc(Oc2ccc(C(F)(F)F)cn2)cc1)N1CCC(Oc2ccc(N3CCN(C4CCCC4)CC3)cc2)CC1` [Example 22, 4-[4-(4-Cyclopentyl-piperazin-1-yl)-phenoxy]-piperidine-1-carboxylic acid 4-(5-trifluoromethyl-pyridin-2-yloxy)-phenyl ester], for which the activity at 10 µM was 4%.
As to `O=C(O)c1ccc(-c2ccc(OC3CCN(C(=O)Oc4ccc(Oc5ccc(C(F)(F)F)cn5)cc4)CC3)cc2)cc1` [Example 35, 4-(4′-Carboxy-biphenyl-4-yloxy)-piperidine-1-carboxylic acid 4-(5-trifluoromethyl-pyridin-2-yloxy)-phenyl ester], the activity at 10 µM was found to be 14%.
The same measure, in the same setting: then `O=C(O)c1coc(-c2ccc(OC3CCN(C(=O)Oc4ccc(Oc5ccc(C(F)(F)F)cn5)cc4)CC3)cc2)n1` [Example 36, 4-[4-(4-Carboxy-oxazol-2-yl)-phenoxy]-piperidine-1-carboxylic acid 4-(5-trifluoromethyl-pyridin-2-yloxy)-phenyl ester], with 8%; and `O=C(O)CCc1ccc(OC2CCN(C(=O)Oc3ccc(Oc4ccc(C(F)(F)F)cn4)cc3)CC2)cc1` [Example 37, 4-[4-(2-Carboxy-ethyl)-phenoxy]-piperidine-1-carboxylic acid 4-(5-trifluoromethyl-pyridin-2-yloxy)-phenyl ester], with 1%.
`O=C(O)c1ccc(OC2CCN(C(=O)Oc3ccc(Oc4ccc(C(F)(F)F)cn4)cc3)CC2)cc1` [Example 39, 4-(4-Carboxy-phenoxy)-piperidine-1-carboxylic acid 4-(5-trifluoromethyl-pyridin-2-yloxy)-phenyl ester]: the activity at 10 µM was determined as 5%.
Regarding `O=C(O)Cc1ccc(OCC2CCN(C(=O)Oc3ccc(Oc4ccc(C(F)(F)F)cn4)cc3)CC2)cc1` [Example 44, 4-(4-Carboxymethyl-phenoxymethyl)-piperidine-1-carboxylic acid 4-(5-trifluoromethyl-pyridin-2-yloxy)-phenyl ester], the activity at 10 µM was 5%.
For the compound `Cc1ccc(Cc2ccc(OC(=O)N3CCC(On4cccn4)CC3)cc2)nc1` [Example 48, 4-(Pyrazol-1-yloxy)-piperidine-1-carboxylic acid 4-(5-methyl-pyridin-2-ylmethyl)-phenyl ester], the activity at 10 µM is 1%.
For the compound `Cc1ccc(Cc2ccc(OC(=O)N3CCC(Oc4ccccc4)CC3)cc2)cn1` [Example 50, 4-Phenoxy-piperidine-1-carboxylic acid 4-(6-methyl-pyridin-3-ylmethyl)-phenyl ester], the activity at 10 µM amounted to 3%.
The same measure, in the same setting: the result for `C=CCOC(=O)Cc1ccc(OC2CCN(C(=O)Oc3ccc(CCN4C(=O)CC(C)(C)CC4=O)cc3)CC2)cc1` [Example 55, 4-(4-Allyloxycarbonylmethyl-phenoxy)-piperidine-1-carboxylic acid 4-[2-(4,4-dimethyl-2,6-dioxo-piperidin-1-yl)-ethyl]-phenyl ester] reads 1%; that for `CC1(C)CC(=O)N(CCc2ccc(OC(=O)N3CCC(Oc4ccc(C(=O)O)cc4)CC3)cc2)C(=O)C1` [Example 59, 4-(4-Carboxy-phenoxy)-piperidine-1-carboxylic acid 4-[2-(4,4-dimethyl-2,6-dioxo-piperidin-1-yl)-ethyl]-phenyl ester], 31%.
`O=C(Nc1ccc(OC(=O)N2CCC(On3cccn3)CC2)nc1)c1ccccc1` [Example 61, 4-(Pyrazol-1-yloxy)-piperidine-1-carboxylic acid 5-benzoylamino-pyridin-2-yl ester]: the activity at 10 µM came to 15%.
On the same count and under the same terms, the result for `O=C(Oc1ccc(Cc2ccc(C(F)(F)F)cc2)cc1)N1CCC(Cc2ncccn2)CC1` [Example 67, 4-Pyrimidin-2-ylmethyl-piperidine-1-carboxylic acid 4-(4-trifluoromethyl-benzyl)-phenyl ester] reads 4%; that for `O=C(Oc1ccc(Oc2ccc(C(F)(F)F)cn2)cc1)N1CCC(Cc2ccsc2)CC1` [Example 68, 4-Thiophen-3-ylmethyl-piperidine-1-carboxylic acid 4-(5-trifluoromethyl-pyridin-2-yloxy)-phenyl ester], 3%; that for `Cc1ccc(CC2CCN(C(=O)Oc3ccc(Cc4ccc(C(F)(F)F)cc4)cc3)CC2)nc1` [Example 71, 4-(5-Methyl-pyridin-2-ylmethyl)-piperidine-1-carboxylic acid 4-(4-trifluoromethyl-benzyl)-phenyl ester], 9%.
Take `O=C(O)Cc1ccc(CC2CCN(C(=O)Oc3ccc(Cc4ccc(C(F)(F)F)cc4)cc3)CC2)cc1` [Example 74, 4-(4-Carboxymethyl-benzyl)-piperidine-1-carboxylic acid 4-(4-trifluoromethyl-benzyl)-phenyl ester]: the activity at 10 µM amounted to 3%.
Turning to `O=C(O)Cc1ccc(OC2CCN(C(=O)Oc3ccc(C(=O)NCCc4ccccc4)cc3)CC2)cc1` [Example 85, 4-(4-Carboxymethyl-phenoxy)-piperidine-1-carboxylic acid 4-phenethylcarbamoyl-phenyl ester], the activity at 10 µM stood at 5%.

The values are drawn from patent publication US20060160851A1, “Substituted piperidine carbamates” (Novo Nordisk A/S, priority 2003, published 2006).
